From ChEMBL document CHEMBL5316322, “Discovery and Characterization of the Topical Soft JAK Inhibitor CEE321 for Atopic Dermatitis” (J Med Chem, 2023)
In brackets after ≈: the same amount, converted by molar mass. Blank lines part the entries; values can stand above or below the molecule they belong to. Activity calls are given as the source filed them. No cut-off for these calls is given here.

Key:
[1] = target: T1, Tyrosine-protein kinase JAK3 (Homo sapiens, UniProt P52333)
T1 sequence (P52333 whole entry): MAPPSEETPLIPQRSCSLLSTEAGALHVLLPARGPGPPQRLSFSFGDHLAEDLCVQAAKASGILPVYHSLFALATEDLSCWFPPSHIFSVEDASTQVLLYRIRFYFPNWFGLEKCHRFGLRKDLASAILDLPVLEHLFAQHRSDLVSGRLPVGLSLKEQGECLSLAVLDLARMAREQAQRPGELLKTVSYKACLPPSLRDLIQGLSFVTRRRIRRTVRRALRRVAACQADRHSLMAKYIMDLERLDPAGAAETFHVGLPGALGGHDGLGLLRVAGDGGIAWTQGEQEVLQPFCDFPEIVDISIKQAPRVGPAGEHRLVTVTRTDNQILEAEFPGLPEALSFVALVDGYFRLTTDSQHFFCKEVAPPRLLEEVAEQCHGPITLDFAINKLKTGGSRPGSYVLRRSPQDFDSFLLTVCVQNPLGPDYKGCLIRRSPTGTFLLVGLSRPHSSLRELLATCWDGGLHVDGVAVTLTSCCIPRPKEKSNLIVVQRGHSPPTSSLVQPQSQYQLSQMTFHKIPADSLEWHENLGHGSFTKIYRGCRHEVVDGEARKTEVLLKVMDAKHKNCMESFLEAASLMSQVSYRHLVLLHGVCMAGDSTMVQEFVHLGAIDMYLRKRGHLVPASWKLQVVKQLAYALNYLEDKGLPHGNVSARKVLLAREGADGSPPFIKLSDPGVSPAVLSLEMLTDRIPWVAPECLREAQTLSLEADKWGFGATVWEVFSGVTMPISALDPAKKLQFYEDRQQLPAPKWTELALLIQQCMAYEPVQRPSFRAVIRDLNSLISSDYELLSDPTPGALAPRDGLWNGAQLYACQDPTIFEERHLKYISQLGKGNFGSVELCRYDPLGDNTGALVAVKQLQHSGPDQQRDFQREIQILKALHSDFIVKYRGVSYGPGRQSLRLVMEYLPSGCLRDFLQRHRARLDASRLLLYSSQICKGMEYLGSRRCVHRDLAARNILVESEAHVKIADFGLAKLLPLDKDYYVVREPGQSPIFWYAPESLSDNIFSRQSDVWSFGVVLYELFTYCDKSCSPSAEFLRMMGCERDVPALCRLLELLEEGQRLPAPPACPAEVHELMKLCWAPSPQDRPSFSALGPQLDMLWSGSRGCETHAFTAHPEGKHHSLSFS

[2] = target: Tyrosine-protein kinase JAK1 (Homo sapiens, UniProt P23458)
Sequence of Tyrosine-protein kinase JAK1 (P23458 whole entry): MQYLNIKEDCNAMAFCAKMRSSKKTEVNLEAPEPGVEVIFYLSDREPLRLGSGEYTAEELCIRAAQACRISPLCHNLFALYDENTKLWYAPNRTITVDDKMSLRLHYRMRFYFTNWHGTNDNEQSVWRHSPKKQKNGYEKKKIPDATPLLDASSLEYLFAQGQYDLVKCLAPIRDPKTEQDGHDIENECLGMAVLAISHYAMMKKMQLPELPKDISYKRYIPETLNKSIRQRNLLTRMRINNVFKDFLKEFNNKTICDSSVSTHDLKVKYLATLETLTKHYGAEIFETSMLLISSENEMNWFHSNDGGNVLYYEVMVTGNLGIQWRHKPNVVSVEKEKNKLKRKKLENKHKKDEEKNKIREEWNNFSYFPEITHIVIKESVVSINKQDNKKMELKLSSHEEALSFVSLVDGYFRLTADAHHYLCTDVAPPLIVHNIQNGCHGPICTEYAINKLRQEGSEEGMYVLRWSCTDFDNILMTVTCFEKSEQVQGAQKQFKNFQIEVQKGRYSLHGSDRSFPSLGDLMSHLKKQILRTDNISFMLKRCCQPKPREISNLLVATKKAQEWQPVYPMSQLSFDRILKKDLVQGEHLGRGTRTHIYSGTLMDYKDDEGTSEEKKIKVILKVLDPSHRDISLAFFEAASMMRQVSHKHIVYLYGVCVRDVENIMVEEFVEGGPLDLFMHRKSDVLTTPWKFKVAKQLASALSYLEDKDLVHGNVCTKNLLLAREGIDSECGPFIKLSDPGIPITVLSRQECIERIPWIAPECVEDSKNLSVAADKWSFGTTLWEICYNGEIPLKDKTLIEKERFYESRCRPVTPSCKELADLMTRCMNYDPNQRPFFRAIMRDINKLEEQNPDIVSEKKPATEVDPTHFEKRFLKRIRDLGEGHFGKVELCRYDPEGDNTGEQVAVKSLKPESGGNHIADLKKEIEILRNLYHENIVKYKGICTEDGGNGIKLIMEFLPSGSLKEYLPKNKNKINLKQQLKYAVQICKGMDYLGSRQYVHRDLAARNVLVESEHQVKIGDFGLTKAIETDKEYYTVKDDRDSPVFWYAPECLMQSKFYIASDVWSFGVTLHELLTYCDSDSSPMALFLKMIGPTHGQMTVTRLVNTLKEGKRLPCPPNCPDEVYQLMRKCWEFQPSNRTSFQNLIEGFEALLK

JAK3/JAK1 [3] = target: T2, JAK3/JAK1 (Homo sapiens, UniProt P23458+P52333); assay type: tissue-based, Blood
T2 sequence (P23458 whole entry, one chain of several): as the sequence (P23458 whole entry) above
Description: Inhibition of JAK1/JAK3 in human blood assessed as reduction of IL-2 stimulated STAT phosphorylation preincubated for 30 mins followed by IL-2 stimulation and measured after 15 mins by flow cytometry method

JAK1/TYK2 = JAK1/TYK2 (Homo sapiens, UniProt P23458+P29597); assay type: cell-based, M07E
Sequence of JAK1/TYK2 (P23458 whole entry): as above
Sequence of JAK1/TYK2 (P29597 whole entry): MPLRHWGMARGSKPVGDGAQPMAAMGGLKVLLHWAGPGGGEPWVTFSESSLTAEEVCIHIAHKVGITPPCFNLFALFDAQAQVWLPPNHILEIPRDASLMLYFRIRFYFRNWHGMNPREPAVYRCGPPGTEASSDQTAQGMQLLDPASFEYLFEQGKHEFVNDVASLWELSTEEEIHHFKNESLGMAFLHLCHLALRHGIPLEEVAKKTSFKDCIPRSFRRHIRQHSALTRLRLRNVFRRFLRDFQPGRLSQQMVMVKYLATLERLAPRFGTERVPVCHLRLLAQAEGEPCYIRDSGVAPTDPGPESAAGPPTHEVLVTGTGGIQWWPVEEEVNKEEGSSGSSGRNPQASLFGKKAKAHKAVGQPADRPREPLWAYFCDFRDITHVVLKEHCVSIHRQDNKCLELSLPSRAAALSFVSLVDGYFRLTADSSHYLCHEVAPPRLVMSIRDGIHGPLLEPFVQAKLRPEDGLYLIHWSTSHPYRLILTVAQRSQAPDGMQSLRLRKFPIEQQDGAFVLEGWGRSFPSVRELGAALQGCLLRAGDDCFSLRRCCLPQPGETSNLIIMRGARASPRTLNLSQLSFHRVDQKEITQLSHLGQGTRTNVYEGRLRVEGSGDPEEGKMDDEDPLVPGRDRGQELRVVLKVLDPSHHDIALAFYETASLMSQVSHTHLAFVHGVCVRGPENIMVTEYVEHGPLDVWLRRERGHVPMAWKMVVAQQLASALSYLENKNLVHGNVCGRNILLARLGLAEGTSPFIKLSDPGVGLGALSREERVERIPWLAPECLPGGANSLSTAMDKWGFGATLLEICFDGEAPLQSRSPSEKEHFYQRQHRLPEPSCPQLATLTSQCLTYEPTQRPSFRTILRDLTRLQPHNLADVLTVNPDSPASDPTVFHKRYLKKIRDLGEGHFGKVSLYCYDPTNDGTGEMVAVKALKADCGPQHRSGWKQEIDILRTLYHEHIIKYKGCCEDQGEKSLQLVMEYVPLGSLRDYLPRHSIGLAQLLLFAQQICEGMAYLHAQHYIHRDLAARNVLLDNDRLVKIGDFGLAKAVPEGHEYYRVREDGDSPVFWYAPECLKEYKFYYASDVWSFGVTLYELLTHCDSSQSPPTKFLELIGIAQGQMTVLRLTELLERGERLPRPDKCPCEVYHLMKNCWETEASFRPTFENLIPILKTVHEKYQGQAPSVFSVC
Description: Inhibition of JAK1/TYK2 in human M07E cells assessed as reduction of IFN alpha stimulated STAT phosphorylation preincubated for 30 mins followed by IFN alpha stimulation and measured after 15 mins by flow cytometry method

JAK3/JAK1 [4] = target: T2, JAK3/JAK1; assay type: cell-based, M07E
Description: Inhibition of JAK1/JAK3 in human M07E cells assessed as reduction of IL-15 stimulated STAT phosphorylation preincubated for 30 mins followed by IL-15 stimulation and measured after 15 mins by flow cytometry analysis

[5] = Lipophilicity, log D of the compound; assay type: physicochemical; settings: octanol/water
[6] = target: Tyrosine-protein kinase JAK2 (Homo sapiens, UniProt O60674)
Sequence of Tyrosine-protein kinase JAK2 (O60674 whole entry): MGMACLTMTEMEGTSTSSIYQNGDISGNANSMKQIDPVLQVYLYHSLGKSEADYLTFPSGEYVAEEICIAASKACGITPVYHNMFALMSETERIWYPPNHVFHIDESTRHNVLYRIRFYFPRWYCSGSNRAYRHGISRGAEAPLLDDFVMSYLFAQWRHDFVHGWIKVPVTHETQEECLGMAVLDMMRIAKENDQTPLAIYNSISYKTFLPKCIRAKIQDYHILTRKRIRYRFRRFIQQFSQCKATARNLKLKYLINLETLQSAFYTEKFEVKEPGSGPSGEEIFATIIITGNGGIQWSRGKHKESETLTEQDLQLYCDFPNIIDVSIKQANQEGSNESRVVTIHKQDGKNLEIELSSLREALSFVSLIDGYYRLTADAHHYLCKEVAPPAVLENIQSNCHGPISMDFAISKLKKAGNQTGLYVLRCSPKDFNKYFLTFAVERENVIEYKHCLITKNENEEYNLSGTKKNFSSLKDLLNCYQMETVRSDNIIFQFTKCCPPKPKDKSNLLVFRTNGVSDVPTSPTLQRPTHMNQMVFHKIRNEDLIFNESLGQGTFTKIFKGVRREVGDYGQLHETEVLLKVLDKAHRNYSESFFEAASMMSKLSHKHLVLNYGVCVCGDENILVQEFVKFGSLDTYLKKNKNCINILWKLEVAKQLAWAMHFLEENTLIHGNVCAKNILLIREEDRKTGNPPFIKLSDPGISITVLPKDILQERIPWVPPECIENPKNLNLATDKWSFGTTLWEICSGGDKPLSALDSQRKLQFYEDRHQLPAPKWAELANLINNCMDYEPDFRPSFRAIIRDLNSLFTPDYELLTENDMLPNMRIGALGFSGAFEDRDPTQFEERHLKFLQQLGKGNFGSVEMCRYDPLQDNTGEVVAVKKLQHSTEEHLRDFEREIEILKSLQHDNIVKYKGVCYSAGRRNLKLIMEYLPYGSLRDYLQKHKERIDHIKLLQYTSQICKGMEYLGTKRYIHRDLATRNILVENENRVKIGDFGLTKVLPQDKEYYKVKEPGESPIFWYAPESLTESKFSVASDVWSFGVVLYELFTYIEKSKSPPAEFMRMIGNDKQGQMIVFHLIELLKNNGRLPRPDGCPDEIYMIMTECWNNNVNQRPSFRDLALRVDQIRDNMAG

in vitro = settings: human, liver microsomes
Description: Microsomal stability in human liver microsomes assessed as intrinsic clearance

[7] = target: Non-receptor tyrosine-protein kinase TYK2 (Homo sapiens, UniProt P29597)
Sequence of Non-receptor tyrosine-protein kinase TYK2 (P29597 whole entry): as the sequence (P29597 whole entry) above
Description: Inhibition of TYK2 (unknown origin) by caliper technology

[8] = Plasma protein binding in human; assay type: ADME, cell-free; settings: read-out: PPB
[9] = Drug exposure in topically dosed minipig and measured for 14 days; assay type: ADME, organism-based, Sus scrofa domesticus; settings: pig, in vivo, topical_or_ocular, 336 h; route top, time 14 day
[10] = target: Glycogen synthase kinase-3 beta (Homo sapiens, UniProt P49841); experiment: Inhibition of GSK3B (unknown origin) by caliper microfluidic mobility shift technology
[11] = Microsomal stability in minipig liver microsomes assessed as intrinsic clearance; assay type: ADME, Sus scrofa domesticus, Microsome; settings: pig
[12] = Drug uptake in topically administered human skin at 1 mm of depth by MALDI-IMS analysis; assay type: ADME, tissue-based, Skin of body; settings: topical or ocular, route top, read-out: Drug uptake
[13] = Drug concentration in topically administered human skin epidermis by MALDI-IMS analysis; assay type: ADME, tissue-based; settings: topical_or_ocular, route top, read-out: Drug uptake
[14] = Aqueous solubility of the compound at pH 6.8; assay type: physicochemical
[15] = Clearance in rat; assay type: ADME; settings: in vivo
Homo sapiens [16] = experiment: Inhibition of IL4/IL13 stimulated TARC gene expression in human fresh skin epidermal explant Franz cell model administered topically to human skin epidermis preincubated with compound overnight followed by IL4/IL13 stimulation and measured after 24 hrs by qRT-PCR analysis; assay type: functional, tissue-based; settings: Skin of body, route top, time 32.0 hrs
[17] = Metabolic stability in rat hepatocytes assessed as intrinsic clearance; assay type: ADME, cell-based, Hepatocyte
[18] = Metabolic stability in minipig hepatocytes assessed as intrinsic clearance; assay type: ADME, cell-based, Sus scrofa domesticus, Hepatocyte; settings: pig
[19] = target: Mitogen-activated protein kinase kinase kinase kinase 4 (Homo sapiens, UniProt O95819); experiment: Inhibition of MAP4K4 (unknown origin) by caliper microfluidic mobility shift technology
Sequence of Mitogen-activated protein kinase kinase kinase kinase 4 (O95819 whole entry): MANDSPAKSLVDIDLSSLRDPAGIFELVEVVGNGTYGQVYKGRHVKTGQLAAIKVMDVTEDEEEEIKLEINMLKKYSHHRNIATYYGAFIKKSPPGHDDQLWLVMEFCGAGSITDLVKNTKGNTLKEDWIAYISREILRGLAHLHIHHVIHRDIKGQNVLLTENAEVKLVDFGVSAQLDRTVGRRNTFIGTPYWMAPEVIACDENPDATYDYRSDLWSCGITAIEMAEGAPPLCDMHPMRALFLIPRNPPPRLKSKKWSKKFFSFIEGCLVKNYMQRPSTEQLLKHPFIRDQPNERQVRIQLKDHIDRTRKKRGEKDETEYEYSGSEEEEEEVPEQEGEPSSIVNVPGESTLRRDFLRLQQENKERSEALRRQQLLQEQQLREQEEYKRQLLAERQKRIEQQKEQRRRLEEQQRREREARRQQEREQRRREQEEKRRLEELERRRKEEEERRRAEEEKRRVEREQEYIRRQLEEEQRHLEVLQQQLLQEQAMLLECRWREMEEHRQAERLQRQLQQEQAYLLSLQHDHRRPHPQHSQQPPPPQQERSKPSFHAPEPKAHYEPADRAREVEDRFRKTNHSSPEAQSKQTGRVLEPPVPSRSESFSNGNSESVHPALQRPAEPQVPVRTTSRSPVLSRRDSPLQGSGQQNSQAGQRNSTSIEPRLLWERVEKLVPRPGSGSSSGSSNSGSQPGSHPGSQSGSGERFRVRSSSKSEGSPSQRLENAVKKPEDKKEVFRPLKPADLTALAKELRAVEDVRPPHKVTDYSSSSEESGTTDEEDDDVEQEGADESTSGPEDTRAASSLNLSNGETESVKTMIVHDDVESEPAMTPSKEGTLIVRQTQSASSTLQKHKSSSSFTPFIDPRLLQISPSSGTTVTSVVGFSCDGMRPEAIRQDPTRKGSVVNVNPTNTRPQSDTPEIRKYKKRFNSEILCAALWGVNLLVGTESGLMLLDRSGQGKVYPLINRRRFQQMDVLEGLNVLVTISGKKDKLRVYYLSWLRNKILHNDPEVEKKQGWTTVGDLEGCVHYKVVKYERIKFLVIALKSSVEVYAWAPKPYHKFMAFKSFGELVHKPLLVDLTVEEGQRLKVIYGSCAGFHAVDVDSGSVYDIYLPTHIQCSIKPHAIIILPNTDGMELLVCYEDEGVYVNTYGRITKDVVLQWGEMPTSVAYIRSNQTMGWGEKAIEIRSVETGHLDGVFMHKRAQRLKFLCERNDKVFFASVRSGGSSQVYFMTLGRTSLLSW

Homo sapiens [20] = experiment: Inhibition of IL4/IL13 stimulated Eotaxin 3 gene expression in human fresh skin epidermal explant Franz cell model administered topically to human skin epidermis preincubated with compound overnight followed by IL4/IL13 stimulation and measured after 24 hrs by qRT-PCR analysis; assay type: functional, tissue-based; settings: Skin of body, route top, time 32.0 hrs
Homo sapiens [21] = experiment: Inhibition of IL4/IL13 stimulated MMP12 gene expression in human fresh skin epidermal explant Franz cell model administered topically to human skin epidermis preincubated with compound overnight followed by IL4/IL13 stimulation and measured after 24 hrs by qRT-PCR analysis; assay type: functional, tissue-based; settings: Skin of body, route top, time 32.0 hrs
[22] = Drug uptake in topically administered human skin at 0.5 mm of depth by MALDI-IMS analysis; assay type: ADME, tissue-based, Skin of body; settings: topical or ocular, route top, read-out: Drug uptake
[23] = target: T3, Signal transducer and activator of transcription 6 (Homo sapiens) (UniProt P42226); experiment: Inhibition of IL4/IL13 induced STAT6 phosphorylation in topically administered human skin assessed as reduction in phosphorylated STAT6 level preincubated with compound overnight followed by IL4/1L13 stimulation and measured after 3 hrs by Western blot analysis; assay type: tissue-based; settings: Skin of body, route top, time 11.0 hrs
T3 sequence (whole entry): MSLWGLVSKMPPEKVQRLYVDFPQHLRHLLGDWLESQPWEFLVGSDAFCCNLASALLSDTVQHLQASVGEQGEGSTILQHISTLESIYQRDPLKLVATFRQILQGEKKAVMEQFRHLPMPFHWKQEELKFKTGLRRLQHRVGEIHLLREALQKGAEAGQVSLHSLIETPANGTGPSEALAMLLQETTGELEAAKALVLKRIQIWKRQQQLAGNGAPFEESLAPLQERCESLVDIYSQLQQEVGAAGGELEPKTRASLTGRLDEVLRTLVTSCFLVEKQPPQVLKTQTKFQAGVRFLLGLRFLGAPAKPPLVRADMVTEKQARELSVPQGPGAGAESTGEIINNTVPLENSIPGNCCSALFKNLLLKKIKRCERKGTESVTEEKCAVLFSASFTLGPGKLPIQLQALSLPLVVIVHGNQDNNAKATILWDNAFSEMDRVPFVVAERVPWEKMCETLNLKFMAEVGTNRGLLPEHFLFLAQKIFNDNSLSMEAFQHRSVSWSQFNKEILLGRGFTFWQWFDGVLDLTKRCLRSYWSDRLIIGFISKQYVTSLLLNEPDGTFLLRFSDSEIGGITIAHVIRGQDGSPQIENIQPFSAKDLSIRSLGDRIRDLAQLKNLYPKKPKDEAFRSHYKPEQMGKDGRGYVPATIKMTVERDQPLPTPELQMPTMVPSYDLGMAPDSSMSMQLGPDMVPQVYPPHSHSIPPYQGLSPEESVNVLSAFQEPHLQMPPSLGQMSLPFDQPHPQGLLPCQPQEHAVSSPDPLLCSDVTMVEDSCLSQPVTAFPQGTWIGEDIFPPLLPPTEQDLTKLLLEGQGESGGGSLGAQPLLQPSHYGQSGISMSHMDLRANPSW

[24] = Half life in minipig; assay type: ADME, Sus scrofa domesticus; settings: pig, in vivo
[25] = Clearance in minipig; assay type: ADME, Sus scrofa domesticus; settings: pig, in vivo
[26] = Microsomal stability in rat liver microsomes assessed as intrinsic clearance; assay type: ADME, Microsome
[27] = Half life in rat; assay type: ADME; settings: in vivo
[28] = Drug excretion in iv dosed bile duct cannulated rat bile assessed as unchanged drug; assay type: ADME, organism-based; settings: read-out: Drug excretion
[29] = Drug excretion in iv dosed bile duct cannulated rat urine assessed as unchanged drug; assay type: ADME, organism-based; settings: read-out: Drug excretion
Homo sapiens [30] = experiment: Inhibition of IL4/IL13 induced MMP12 gene expression in topically administered human skin preincubated with compound overnight followed by IL4/IL13 stimulation and measured after 3 hrs by qRT-PCR analysis; assay type: functional, tissue-based; settings: Skin of body, route top, time 11.0 hrs
[31] = Metabolic stability in human hepatocytes assessed as intrinsic clearance; assay type: ADME, cell-based, Hepatocyte
[32] = target: T4, Janus Kinase (JAK) (Homo sapiens) (UniProt P52333+P23458+O60674+P29597); experiment: Inhibition of JAK in human skin assessed as reduction in TARC release at 10 uM incubated for 24 hrs in the presence of IL4/IL13 by MSD analysis relative to control; assay type: tissue-based; settings: Skin of body
T4 sequence (O60674 whole entry, looked up, one chain of several): as the sequence (O60674 whole entry) above
T4 sequence (P23458 whole entry, looked up, one chain of several): as the sequence (P23458 whole entry) above
T4 sequence (P29597 whole entry, looked up, one chain of several): as the sequence (P29597 whole entry) above

[33] = […] in mouse 3T3 cells by neutral red uptake assay; assay type: toxicity, cell-based; settings: nih3t3
[34] = target: T4, Janus Kinase (JAK) (Homo sapiens); experiment: Inhibition of JAK in human skin assessed as reduction in TARC release at 1 uM incubated for 24 hrs in the presence of IL4/IL13 by MSD analysis relative to control; assay type: tissue-based; settings: Skin of body

SMILES: COc1ccccc1Nc1cc(Nc2ccccn2)ncc1C(N)=O
IC50 [1]: 11 nM
IC50 [2]: 9 nM
IC50 (JAK3/JAK1 [3]): 340 nM
IC50 (JAK1/TYK2): 31 nM
IC50 (JAK3/JAK1 [4]): 45 nM
logD [5]: 3.4
IC50 [6]: 8 nM
microsomal CLint (in vitro): 210 µL/min/mg
IC50 [7]: 6 nM

SMILES: COc1ccccc1Nc1cc(Nc2cccnn2)ncc1C(N)=O
IC50 [1]: 39 nM
IC50 [2]: 29 nM
IC50 (JAK3/JAK1 [3]): 486 nM
IC50 (JAK1/TYK2): 51 nM
IC50 (JAK3/JAK1 [4]): 66 nM
logD [5]: 2.4
IC50 [6]: 29 nM
microsomal CLint (in vitro): 127 µL/min/mg
IC50 [7]: 19 nM

SMILES: COc1ccccc1Nc1cc(Nc2cccc(C)n2)ncc1C(N)=O
IC50 [1]: 18 nM
IC50 [2]: 14 nM
IC50 (JAK3/JAK1 [3]): 994 nM
IC50 (JAK1/TYK2): 33 nM
IC50 (JAK3/JAK1 [4]): 85 nM
logD [5]: 3.7
IC50 [6]: 14 nM
microsomal CLint (in vitro): 179 µL/min/mg
IC50 [7]: 15 nM

SMILES: NC(=O)c1cnc(Nc2ccccn2)cc1Nc1ccccc1Cl
IC50 [1]: 10 nM
IC50 [2]: 22 nM
IC50 (JAK3/JAK1 [3]): 564 nM
IC50 (JAK1/TYK2): 84 nM
IC50 (JAK3/JAK1 [4]): 41 nM
logD [5]: 3.7
fraction unbound [8]: < 0.01
IC50 [6]: 27 nM
microsomal CLint (in vitro): 227 µL/min/mg
IC50 [7]: 11 nM

SMILES: Cc1cccc(Nc2cc(Nc3ccccc3Cl)c(C(N)=O)cn2)n1
IC50 [1]: 59 nM
Drug uptake [9]: < 1 nM
IC50 [10]: 380 nM
CLH [11]: 67 mL·min/g
concentration at 1000 µM [12]: 1.68 µM
concentration [13]: 13 µM
IC50 [2]: 50 nM
solubility [14]: 0.2 µM (≈ 0.0708 µg/mL)
clearance [15]: 82 mL/min/kg
IC50 (JAK3/JAK1 [3]): 2350 nM
inhibition (Homo sapiens [16]): Active
CLH [17]: 94 mL·min/g
CLH [18]: 38 mL·min/g
IC50 [19]: 110 nM
inhibition (Homo sapiens [20]): Active
IC50 (JAK1/TYK2): 85 nM
inhibition (Homo sapiens [21]): Active
concentration at 500 µM [22]: 3.51 µM
IC50 (JAK3/JAK1 [4]): 54 nM
inhibition [23]: Active
half-life [24]: 60 min
CL [25]: 52 mL/min/g
CLH [26]: 204 mL·min/g
half-life [27]: 30 min
dose excreted [28]: < 1%
dose excreted [29]: 1.3%
inhibition (Homo sapiens [30]): Active
CLH [31]: 47 mL·min/g
logD [5]: 4.3
fraction unbound [8]: < 0.01
inhibition [32]: 100%
IC50 [6]: 48 nM
Activity [33]: Non-Toxic
microsomal CLint (in vitro): 166 µL/min/mg
IC50 [7]: 50 nM
inhibition [34]: 74%

The remaining lines, values ahead:

microsomal CLint (in vitro): 40 µL/min/mg
SMILES: N#CC[C@H](C1CCCC1)n1cc(-c2ncnc3[nH]ccc23)cn1 [RUXOLITINIB]

microsomal CLint (in vitro): < 25 µL/min/mg
SMILES: C[C@H]1CN(C(=O)CC#N)[C@]12CCN(c1ncnc3[nH]ccc13)C2 [DELGOCITINIB]

microsomal CLint (in vitro): < 25 µL/min/mg
SMILES: CC[C@@H]1CN(C(=O)NCC(F)(F)F)C[C@@H]1c1cnc2cnc3[nH]ccc3n12 [UPADACITINIB]

microsomal CLint (in vitro): < 25 µL/min/mg
SMILES: CCS(=O)(=O)N1CC(CC#N)(n2cc(-c3ncnc4[nH]ccc34)cn2)C1 [BARICITINIB]

microsomal CLint (in vitro): < 25 µL/min/mg
SMILES: Cn1cc(Nc2nccc(N3CC4CCC(C3)N4C(=O)[C@@H]3CC3(F)F)n2)cn1
